Experimental data taken from patent US12060310B2, “Compositions and methods of using itaconic acid derivatives” (ERGON PHARMACEUTICALS, LLC, priority 2018, dated 2024).
“Also recorded” adds a separate entry of the source.

How the values were obtained:
[1] = system: TNFα secretion from LPS-stimulated human monocyte derived macrophages (hMDMs); experiment: Inhibition of TNFα secretion (in vitro inflammation assay), ELISA; assay type: cell-based; details: 1 μg/mL LPS, 6 h, concentrations ≥500 μM, FIG. 2
Procedure: In Vitro Inflammation Assay. In vitro inflammation was assessed by measuring the concentration of TNFα in the conditioned media of macrophages stimulated with 0.1-1 μg/mL LPS in the presence or absence of the compound of interest after 4-6 hrs.
Inhibition of TNFα secretion. hMDMs were pretreated with various concentrations of Compound (6) for 15 min and then stimulated with 1 μg/mL LPS. Conditioned media were collected 6 h later and TNFα concentrations were determined by ELISA.

IRG1 = molecular target: T1, IRG1 (Homo sapiens, UniProt A6NK06); experiment: Itaconic acid synthesis by LPS-stimulated macrophages (inhibition of IRG1), GC-MS; assay type: cell-based; details: LPS-stimulated hMDMs; pretreated 50, 100, 500 μM for 15 min, LPS 8 hrs; FIG. 1
T1 construct: Human monocytes, isolated from peripheral blood and differentiated into macrophages; endogenous in cells; host or cells: human monocyte-derived macrophages (hMDMs), M-CSF differentiated, LPS stimulated
T1 sequence (A6NK06 1-481): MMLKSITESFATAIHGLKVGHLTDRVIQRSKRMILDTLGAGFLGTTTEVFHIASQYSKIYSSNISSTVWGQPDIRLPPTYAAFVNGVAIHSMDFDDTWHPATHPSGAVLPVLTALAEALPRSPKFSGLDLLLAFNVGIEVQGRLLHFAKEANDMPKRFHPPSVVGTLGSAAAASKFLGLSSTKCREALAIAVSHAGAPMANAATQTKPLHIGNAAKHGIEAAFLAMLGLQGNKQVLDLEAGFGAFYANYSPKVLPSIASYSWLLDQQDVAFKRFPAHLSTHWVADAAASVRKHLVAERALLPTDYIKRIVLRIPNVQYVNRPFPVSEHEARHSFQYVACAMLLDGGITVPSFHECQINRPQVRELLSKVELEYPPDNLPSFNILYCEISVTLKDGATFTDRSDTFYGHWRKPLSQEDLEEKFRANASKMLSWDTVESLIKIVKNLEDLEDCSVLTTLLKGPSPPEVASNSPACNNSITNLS
Procedure: Inhibition of IRG1. Itaconic acid levels are a measure of IRG1 expression/activity. To determine the activity of IRG, hMDMs were stimulated with 100 ng/ml LPS for 8 hrs in the presence or absence of the therapeutic agent. Gas chromatography-mass spectroscopy (GC-MS) was used to estimate the intracellular and extracellular concentration of the itaconic acid. In a typical assay, 1-5×10^6 cells were plated onto a 6-well plate and allowed to adhere overnight. The cells were then stimulated with 0.1-1 μg/mL LPS in the presence or absence of the compound of interest for 8 hrs. The cells were then washed and metabolites were extracted using methanol/water and acetonitrile additions. The aqueous phase of the mixture was dried and metabolites present were derivatized prior to the detection by GC-MS.
Itaconic Acid Synthesis by LPS-Stimulated Macrophages after Treatment with Compound (6). Human monocytes, isolated from peripheral blood and differentiated into macrophages in the presence of 100 ng/ml monocyte colony-stimulating factor (M-CSF) for 5 days, were plated onto a 6-well plate at a density of 1×10^6 cells/well. The cells were allowed to adhere overnight. […] Derivatized metabolites were analyzed by GC-MS. The amount of itaconic acid present in the samples was determined after peak integration. […]

[2] = system: TCR-activated hCD8+ T cells; experiment: CD8+ T cell proliferation (CFSE dilution, flow cytometry); assay type: cell-based, human; details: 10 nM; versus untreated TCR-activated control cells; FIG. 4
Procedure: Augmentation of CD8^+ T Cell Proliferation. Naïve hCD8^+ T cells were isolated from commercially available buffy coats using magnetic separation and the appropriate kit from Miltenyi Biotec. Cells were then subject to TCR activation using a cocktail of anti-CD2/anti-CD3/anti-CD28 antibodies. Untreated control and treated cells were included in the experiment. The cells were cultured for 72 hrs in TexMACS media (Miltenyi Biotec) without IL-2 and for an additional 48 hrs in TexMACS media containing 20 U human IL-2/mL. Cell division was assessed by flow cytometry using the carboxyfluorescein succimidyl ester (CFSE) dilution method.

[3] = system: trimethylated lysine site 4 of histone 3 (H3K4me3); experiment: Epigenetic modification, Western immunoblotting of H3K4me3; assay type: cell-based, human; details: 10 μM, 72 hrs, TCR-activated hCD8+ T cells; FIG. 5
Procedure: Epigenetic Modifications. The ability of a therapeutic agent to alter acetylation and/or methylation of histones was assessed by Western Immunoblotting. Briefly, immune and other type cells were collected after being exposed to the therapeutic agent or vehicle control for a specific period of time, typically 24-72 hrs. They were then lysed and cell lysates from control and treated cells contained equal amounts of proteins were subjected to SDS-PAGE electrophoresis. The presence of acetylated and methylated histone sites was determined by Western Immunoblotting using appropriate antibodies.
Epigenetic Modification. TCR-activated hCD8^+ T cells were exposed to 0 or 10 µM Compound (6) for 72 hrs prior to lysing. Equal amounts of cell lysates were subjected to gel electrophoresis and Western immunoblotting against trimethylated lysine site 4 of histone 3 (H3K4me3). The experiment also included cell lysates from naïve cells. Image J was used for protein quantification. Western immunoblotting against histone 3 (H3) was also performed for normalization purposes. […] Exposure of the hCD8^+ T cells to 10 μM Compound (6) led to the depletion of trimethylated H3K4. H3K4me3 is commonly associated with activation of transcription.

M-MDSCs in CT26 tumors = experiment: Tumor immunophenotyping of CT26 tumors (MDSCs); assay type: in vivo, mouse; details: 0.2 mg/kg ip, twice a day; tumors 250-1500 mm^3; FIG. 7
Procedure: Tumor Immunophenotyping. To determine the effect of a therapeutic agent on a specific immune cell type in vivo, syngeneic tumor models were employed. In a typical experiment, tumors were allowed to grow to a certain size and were then treated for a specific number of days prior to termination. At the end of the experiment, animals were euthanized, tumors were excised and single cell suspensions were immediately obtained through dissociation of tumor tissues with collagenase. Tumor cell suspensions were then subject to FACS analysis in order to determine the presence of various biomarkers.
Tumor Immunophenotyping of CT26 Tumors. CT26-tumor bearing mice treated with either vehicle control or 0.2 mg/kg Compound (6) (ip, twice a day) were euthanized when the tumors had reached a size of 250-1500 mm^3. Tumors were excised and single cell suspensions were obtained using the tumor dissociation kit from Miltenyi Biotec per manufacturer's instructions. The suspensions were analyzed for the presence of MDSCs.

[4] = system: C6-IRG1-9 rat glioma cells; experiment: C6-IRG1-9 rat glioma cell proliferation (CyQuant); assay type: cell-based; details: various concentrations, 48 hrs; FIG. 3
Procedure: Tumor Cell Proliferation Assay. This assay was used to assess the anti-tumor properties of a therapeutic agent in vitro. In a typical proliferation assay, cells were cultured to near confluency in the appropriate media. Subsequently, the cells were trypsinized and plated onto 96-well plates at 2,000 or 5,000 cell per well. The cells were cultured for 48 to 96 hours in the presence or absence of the therapeutic agent. Cell proliferation was then determined using spectrophotometry (MTT assay, BrdU assay) or fluorimetry (Cyquant assay).
Inhibition of C6-IRG1-9 Rat Glioma cell proliferation. C6-IRG1-9 cells are rat C6 glioma cells that have been transfected to overexpress IRG1. Overexpression of IRG1 is maintained by culturing the cells in DMEM media containing 0.55 μg/mL puromycin. For the proliferation assays, the cells were plated onto a 96-well plate at a density of 2,000 cells/well. The cells were allowed to adhere overnight; they were subsequently treated with various concentrations of compounds of Formula (2) for 48 hrs. At the end of the incubation period, the number of cells is assessed using the CyQuant Cell Proliferation kit (Thermo Fisher) according to the manufacturer's instructions. The results, shown in FIG. 3, indicate that compounds of Formula (2) are able to reduce or abrogate growth of C6-IRG1-9 cells. In FIG. 3, cell proliferation is expressed as % Untreated Control, defined as: (t−s)*100/(c−s), where t is the number of cells present in a treated well at the end of the incubation period, c is the number of cells present in an untreated well at the end of the incubation period, and s is the initial number of cells in the wells prior to initiation of treatment.

[5] = system: TCR-activated hCD8+ T cells; experiment: hCD8+ T cell differentiation into effector T cells (IFNγ and GZMB release, ELISA); assay type: cell-based, human
Procedure: Differentiation of T Cells. The ability of T cells to differentiate from a naïve to an effector state was assessed by measuring the levels of IFNγ or GZMB synthesis following activation of the cells using a cocktail of anti-CD2/anti-CD3/anti-CD28 antibodies. Expression of IFNγ, GZMB, and other effector cytokines was measured by determining their concentration in the conditioned media 24-72 hrs after initiation of activation or by estimating the % cells expressing these cytokines using fluorescence-activated cell sorting (FACS).
Augmentation of hCD8^+ T Cell Differentiation into Effector T Cells. Naïve CD8+ T cells were isolated from human buffy coats using magnetic separation and the appropriate kit from Miltenyi Biotec. Cells were then activated using a cocktail of anti-CD2/anti-CD3/anti-CD28 antibodies. Differentiation of the cells into effector T cells was assessed by determining the levels of IFNγ and GZMB released into the media at 24 and 72 hrs, respectively using appropriate ELISA kits. Cytokine concentrations were normalized per number of cells present and expressed as % Untreated Control.

[6] = system: CT26 mouse colorectal tumors; experiment: Survival of CT26 tumor-bearing mice (in vivo anti-tumor effect)
Procedure: In Vivo Anti-Tumor Effect. The anticancer properties of the therapeutic agent were evaluated in vivo by determining the ability of the agent to suppress tumor growth and/or increase survival of tumor-bearing animals. In a typical experiment, 0.1-1×10^6 tumor cells, suspended in PBS containing 20% Matrigel, were injected subcutaneously in the right flank of each mouse. When the tumors became palpable, the animals were randomized into different groups and treatment began. In vivo tests routinely included a vehicle control group and different doses and/or routes of administration of the therapeutic agent. Tumor growth was assessed using calipers and the following formula: Tumor Volume=length×width×width×½
The Kaplan-Meier analysis was used to estimate the survival probability of the tumor-bearing animals.
C57BL/6 mice were injected subcutaneously in the right flank with 1×10^5 CT26 mouse colorectal tumor cells, suspended in PBS containing 20% Matrigel. The tumors were allowed to grow to ˜100 mm^3. The mice were randomized into two groups (n=6 animals/group): one group received vehicle control and the other group was treated with i.p. injections of 0.2 mg/kg Compound (6) twice a week (Tuesday-Thursday). The experiment continued for 27 days, at which point the mortality rate of control animals was 80%. […] The experiment was repeated (FIG. 6B). In FIG. 6B, treated animals received oral administrations of 3 mg/kg Compound (6) twice a day.

[7] = 3 mg/kg oral twice a day, end of experiment

## O=C(O)/C(=C\c1ccc(F)cc1)C(Cc1ccccc1)C(=O)O (stereo not drawn) [Compound (6), 2-benzyl-3-[(4-flurophenyl)methylidene]butanedioic acid]
[1]
  secretion of TNFα: inhibits in vitro inflammation; also recorded: reduced secretion
IRG1
  extracellular levels of itaconic acid: suppressed
  intracellular levels of itaconic acid: suppressed
[2]
  proliferation of hCD8+ T cells: increased proliferation
[3]
  trimethylated H3K4 (H3K4me3/H3 ratio): depletion
M-MDSCs in CT26 tumors
  intratumoral frequency of M-MDSCs: significantly reduces
[4]
  cell proliferation of C6-IRG1-9 cells: inhibition of proliferation
[5]; high (>100 μM) concentrations
  IFNγ synthesis: decrease
[5]; low concentrations
  production of GZMB: increase production
[5]; low concentrations, range of 0.1 nM to 100 µM
  synthesis of INFγ following TCR activation: increased synthesis
[6]; 0.2 mg/kg i.p. twice a week, 27 days, versus vehicle control, FIG. 6A
  survival (Kaplan-Meier) of CT26 tumor-bearing mice: survival advantage
[6]; [7]
  animals with complete tumor regression: ⅙
  mice exhibiting slower tumor growth: ⅚
[6]; 3 mg/kg orally twice a day, FIG. 6B
  survival of CT26 tumor-bearing mice: increased survival

## CC(C)=C(CC(=O)O)C(=O)O [(3), 2-(propan-2-ylidene)butanedioic acid]
[4]
  cell proliferation of C6-IRG1-9 cells: inhibition of proliferation

## O=C(O)CC(=Cc1ccccc1)C(=O)O [(4), 2-(phenylmethylidene)butanedioic acid]
[4]
  cell proliferation of C6-IRG1-9 cells: inhibition of proliferation

## O=C(O)CC(=Cc1ccc(F)cc1)C(=O)O [Compound (5), 2-[(4-fluorophenyl)methylidene]butanedioic acid]
[4]
  cell proliferation of C6-IRG1-9 cells: inhibition of proliferation

## C=CCC(C(=O)O)/C(=C/c1ccc(F)cc1)C(=O)O (stereo not drawn) [(7), 2-[(4-flurophenyl)methylidene]-3-(prop-2-ene-1-yl)butanedioic acid]
[4]
  cell proliferation of C6-IRG1-9 cells: inhibition of proliferation
